Assay results taken from the supplement of paper PMC10307832.

Tests used:
Test in all cases: relative viability (nuclei count vs DMSO), 5 days (fraction); higher = more cells survive
Carboplatin + Olaparib = compound: C1CC(C1)(C(=O)O)C(=O)O.[NH2-].[NH2-].[Pt+2] [Carboplatin] + O=C(c1cc(Cc2n[nH]c(=O)c3ccccc23)ccc1F)N1CCN(C(=O)C2CC2)CC1 [Olaparib] (partner 8 µM)
Procedure, shortened: (§1)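 The day after seeding in 1536-well plates, lung cancer cell lines were treated by pin tool with a single drug, or with a fixed anchor-drug dose together with five library-drug doses (not always all listed) in √10 steps. After 5 days, a combined fix-and-stain solution (final 0.05% Triton X-100, 1% formaldehyde, 1 ug/ml Hoechst) was added. Nuclei counted on 4× images gave relative viability as treated counts over vehicle counts, reported as the median of duplicate plates.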

GSK126 + Vorinostat = compound: CC[C@H](C)N1C=C(C2=C(C=C(C=C21)C3=CN=C(C=C3)N4CCNCC4)C(=O)NCC5=C(C=C(NC5=O)C)C)C [GSK126] + O=C(CCCCCCC(=O)Nc1ccccc1)NO [Vorinostat] (partner 1 µM)
Procedure, shortened: as §1

Carboplatin + Vorinostat = compound: C1CC(C1)(C(=O)O)C(=O)O.[NH2-].[NH2-].[Pt+2] [Carboplatin] + O=C(CCCCCCC(=O)Nc1ccccc1)NO [Vorinostat] (partner 1 µM)
Procedure, shortened: as §1

Carboplatin + AZD7762 = compound: C1CC(C1)(C(=O)O)C(=O)O.[NH2-].[NH2-].[Pt+2] [Carboplatin] + NC(=O)Nc1cc(-c2cccc(F)c2)sc1C(=O)N[C@H]1CCCNC1 [AZD7762] (partner 0.2 µM)
Procedure, shortened: as §1

Row | Cell Line | relative viability (Carboplatin + Olaparib; first compound 0.08 µM) | relative viability (Carboplatin + Olaparib; first compound 0.253 µM) | relative viability (Carboplatin + Olaparib; first compound 0.8 µM) | relative viability (Carboplatin + Olaparib; first compound 2.53 µM) | relative viability (Carboplatin + Olaparib; first compound 8 µM) | relative viability (GSK126 + Vorinostat; first compound 0.08 µM) | relative viability (GSK126 + Vorinostat; first compound 0.253 µM) | relative viability (GSK126 + Vorinostat; first compound 0.8 µM) | relative viability (GSK126 + Vorinostat; first compound 2.53 µM) | relative viability (GSK126 + Vorinostat; first compound 8 µM) | relative viability (Carboplatin + Vorinostat; first compound 0.08 µM) | relative viability (Carboplatin + Vorinostat; first compound 0.253 µM) | relative viability (Carboplatin + Vorinostat; first compound 0.8 µM) | relative viability (Carboplatin + Vorinostat; first compound 2.53 µM) | relative viability (Carboplatin + Vorinostat; first compound 8 µM) | relative viability (Carboplatin + AZD7762; first compound 0.08 µM) | relative viability (Carboplatin + AZD7762; first compound 0.253 µM) | relative viability (Carboplatin + AZD7762; first compound 0.8 µM) | relative viability (Carboplatin + AZD7762; first compound 2.53 µM) | relative viability (Carboplatin + AZD7762; first compound 8 µM)
1 | 201T | 0.869 | 0.836 | 0.872 | 0.822 | 0.774 | 1.05 | 1.04 | 0.954 | 1.13 | 1.15 | 1.06 | 0.948 | 0.995 | 0.962 | 0.926 | 0.643 | 0.608 | 0.612 | 0.482 | 0.423
2 | NCI-H1755 | 0.861 | 0.895 | 0.88 | 0.854 | 0.784 | 0.8 | 0.719 | 0.74 | 0.794 | 0.58 | 0.793 | 0.834 | 0.874 | 0.722 | 0.685 | 0.445 | 0.477 | 0.491 | 0.465 | 0.419
3 | NCI-H647 | 0.631 | 0.543 | 0.53 | 0.431 | 0.222 | 0.724 | 0.61 | 0.614 | 0.592 | 0.687 | 0.39 | 0.493 | 0.609 | 0.646 | 0.175 | 0.604 | 0.474 | 0.444 | 0.476 | 0.303
4 | NCI-H1651 | 0.191 | 0.199 | 0.185 | 0.166 | 0.161 | 0.614 | 0.548 | 0.545 | 0.6 | 0.55 | 0.617 | 0.556 | 0.588 | 0.524 | 0.483 | 0.539 | 0.537 | 0.447 | 0.456 | 0.436
